One assay concerns the target T1, human CCR-3 (Homo sapiens, UniProt P51677).
T1 construct: expressed in transfected cells; membranes
T1 sequence (P51677 1-355): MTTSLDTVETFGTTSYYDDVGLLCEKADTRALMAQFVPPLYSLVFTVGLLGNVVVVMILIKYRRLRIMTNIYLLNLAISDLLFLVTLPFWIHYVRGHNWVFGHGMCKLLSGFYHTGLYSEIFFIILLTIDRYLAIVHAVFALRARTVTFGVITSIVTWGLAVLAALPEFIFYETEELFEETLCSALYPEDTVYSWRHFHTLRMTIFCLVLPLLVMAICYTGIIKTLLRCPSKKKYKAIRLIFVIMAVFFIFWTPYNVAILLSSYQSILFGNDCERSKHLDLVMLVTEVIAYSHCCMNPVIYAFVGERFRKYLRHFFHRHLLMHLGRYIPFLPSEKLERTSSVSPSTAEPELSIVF
Briefly: CCR-3 binding assay (SPA, [125I]-human eotaxin). The note with it: membranes of RBL-2H3 cells stably expressing CCR3, 4 hours at room temperature, read-out: IC50, inhibition of binding of human eotaxin to human CCR-3. On the procedure:
In this assay the effect of agents of the invention on the binding of human eotaxin to human CCR-3 is determined. Recombinant cells expressing human CCR-3 are captured by wheatgerm agglutinin (WGA) polyvinyltoluidene (PVT) SPA beads (available from Amersham), through a specific interaction between the WGA and carbohydrate residues of glycoproteins on the surface of the cells. [^125I]-human eotaxin (available from Amersham) binds specifically to CCR-3 receptors bringing the [^125I]-human eotaxin in close proximity to the SPA beads. Emitted â-particles from the [^125I]-human eotaxin excite, by its proximity, the fluorophore in the beads and produce light.
Preparation of Assay Buffer: 5.96 g HEPES and 7.0 g sodium chloride are dissolved in distilled water and 1M aqueous CaCl2 (1 ml) and 1M aqueous MgCl2 (5 ml) are added. The pH is adjusted to 7.6 with NaOH and the solution made to a final volume of 1 L using distilled water. 5 g bovine serum albumin and 0.1 g sodium azide are then dissolved in the solution and the resulting buffer stored at 4° C. A Complete™ protease inhibitor cocktail tablet (available from Boehringer) is added per 50 ml of the buffer on the day of use.
Preparation of Homogenisation Buffer: Tris-base (2.42 g) is dissolved in distilled water, the pH of the solution is adjusted to 7.6 with hydrochloric acid and the solution is diluted with distilled water to a final volume of 1 l. The resulting buffer is stored at 4° C. A Complete™ protease inhibitor cocktail tablet is added per 50 ml of the buffer on the day of use.
Preparation of membranes: Confluent rat basophil leukemia (RBL-2H3) cells stably expressing CCR3 are removed from tissue culture flasks using enzyme-free cell dissociation buffer and resuspended in phosphate-buffered saline. The cells are centrifuged (800 g, 5 minutes), the pellet resuspended in ice-cold homogenisation buffer using 1 ml homogenisation buffer per gram of cells and incubated on ice for 30 minutes. The cells are homogenised on ice with 10 strokes in a glass mortar and pestle. The homogenate is centrifuged (800 g, 5 minutes, 4° C.), the supernatant further centrifuged (48,000 g, 30 minutes, 4° C.) and the pellet redissolved in Homogenisation Buffer containing 10% (v/v) glycerol. The protein content of the membrane preparation is estimated by the method of Bradford (Anal. Biochem. (1976) 72:248) and aliquots are snap frozen and stored at −80° C.
The assay is performed in a final volume of 250 μl per well of an Optiplate™ microplate (ex Canberra Packard). To selected wells of the Optiplate™ are added 50 μl of solutions of a test compound in Assay Buffer containing 5% DMSO (concentrations from 0.01 nM to 10 μM). To determine total binding, 50 μl of the Assay Buffer containing 5% DMSO is added to other selected wells. To determine non-specific binding, 50 μl of 100 nM human eotaxin (ex R&D Systems) in Assay Buffer containing 5% DMSO is added to further selected wells. To all wells are added 50 μl [^125I]-Human eotaxin (ex Amersham) in Assay Buffer containing 5% DMSO at a concentration of […] (to give a final concentration of […]), 50 μl of WGA-PVT SPA beads in Assay Buffer (to give a final concentration of 1.0 mg beads per well) and 100 μl of the membrane preparation at a concentration of 100 μg protein in Assay Buffer (to give a final concentration of 10 μg protein per well). The plate is then incubated for 4 hours at room temperature. The plate is sealed using TopSeal-S™ sealing tape (ex Canberra Packard) according to the manufacturers instructions. The resulting scintillations are counted using a Canberra Packard TopCount™ scintillation counter, each well being counted for 1 minute. The concentration of test compound at which 50% inhibition occurs (IC50) is determined from concentration-inhibition curves in a conventional manner.

The next assay deals with histamine H1 (Homo sapiens, UniProt P35367). Briefly: histamine H1 antagonism.
Assay [1] concerns the target alpha-1 adrenergic receptor. Briefly: alpha-1 adrenergic receptor radioligand binding assay ([125I]-HEAT, cerebral cortex membranes). The note with it: rat cerebral cortex membranes; radioligand used at 40 pM. On the procedure: Cerebral cortices from male Sprague-Dawley rats (175-200 g) are dissected and homogenised in 10 volumes of ice cold 0.32 M sucrose (containing 1 mM MgCl2 dihydrate and 1 mM K2HPO4) with a glass/teflon homogeniser. The membranes are centrifuged at 1000×g for 15 miN, the pellet discarded and the centrifugation repeated. The supernatants are pooled and centrifuged at 18,000×g for 15 minutes. The pellet is osmotically shocked in 10 volumes of water and kept on ice for 30 minutes. The suspension is centrifuged at 39,000×g for 20 minutes, resuspended in Krebs-Henseleit buffer pH 7.4 (1.17 mM MgSO4 anhydrous, 4.69 mM KCl, 0.7 mM K2HPO4 anhydrous, 0.11 M NaCl, 11 mM D-glucose and 25 mM NaHCO3) containing 20 mM Tris, and kept for 2 days at −20° C. The membranes are then thawed at 20-23° C., washed three times with Krebs-Henseleit buffer by centrifugation at 18,000×g for 15 minutes, left overnight at 4° C. and washed again three times. The final pellet is resuspended with a glass/teflon homogeniser in 125 ml/100 membranes in the same buffer. […]
The resulting membranes are subjected to a radioligand binding assay. […] Following drying of the plates for 3 h. at 50° C., 40 μl of Microscint 20 is added to each well, the plates incubated at room temperature for a further 20 minutes and the retained radioactivity quantified in a Packard TopCount NXT™ scintillation counter. […]

The structures appear in SMILES notation.

Chain of histamine H1 (P35367 whole entry): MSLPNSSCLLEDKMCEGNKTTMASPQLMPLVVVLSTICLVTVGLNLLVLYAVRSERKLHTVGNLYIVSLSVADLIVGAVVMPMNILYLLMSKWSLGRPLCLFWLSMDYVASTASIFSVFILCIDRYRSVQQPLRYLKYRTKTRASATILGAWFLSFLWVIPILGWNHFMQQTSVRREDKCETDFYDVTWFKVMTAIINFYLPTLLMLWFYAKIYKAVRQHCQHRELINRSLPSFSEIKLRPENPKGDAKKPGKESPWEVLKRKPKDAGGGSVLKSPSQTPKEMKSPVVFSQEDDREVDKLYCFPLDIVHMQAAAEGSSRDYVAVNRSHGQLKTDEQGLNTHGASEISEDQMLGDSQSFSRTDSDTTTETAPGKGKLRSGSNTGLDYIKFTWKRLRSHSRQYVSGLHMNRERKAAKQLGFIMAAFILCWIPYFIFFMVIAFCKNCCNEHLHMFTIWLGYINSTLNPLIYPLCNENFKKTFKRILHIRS

By IC50 is commonly meant the point on the concentration scale where inhibition reaches its midpoint. Regarding `COc1cc(NC(=O)N[C@H](CO)CCN2CC(Oc3ccc(Cl)cc3)C2)cc(OC)c1` [Example 26, 1-{(S)-3-[3-(4-Chloro-phenoxy)-azetidin-1-yl]-1-hydroxymethyl-propyl}-3-(3,5-dimethoxy-phenyl)-urea], at human CCR-3, the IC50 is 7 nM.

In the case of `Cn1nc(C2CC2)cc1NC(=O)N[C@H](CO)CCN1CC(Oc2ccc(Cl)cc2)C1` [Example 83, 1-{(S)-3-[3-(4-Chloro-phenoxy)-azetidin-1-yl]-1-hydroxymethyl-propyl}-3-(5-cyclopropyl-2-methyl-2H-pyrazol-3-yl)-urea], the IC50 on human CCR-3 is 5 nM.

Regarding `CCc1cc(NC(=O)N[C@H](CO)CCN2CC(Oc3ccc(Cl)cc3)C2)n(C)n1` [Example 88, 1-{(S)-3-[3-(4-Chloro-phenoxy)-azetidin-1-yl]-1-hydroxymethyl-propyl}-3-(5-ethyl-2-methyl-2H-pyrazol-3-yl)-urea], the IC50 at human CCR-3 was determined as 6 nM.

As for `CCc1nnc(NC(=O)N[C@H](CO)CCN2CC(Oc3ccc(Cl)cc3)C2)s1` [Example 99, 1-{(S)-3-[3-(4-Chloro-phenoxy)-azetidin-1-yl]-1-hydroxymethyl-propyl}-3-(5-ethyl-[1,3,4]thiadiazol-2-yl)-urea], the IC50 on human CCR-3 worked out at 7 nM.

As to `COc1cc(NC(=O)N[C@@H](CCN2CC(Oc3ccc(Cl)cc3)C2)COC(C)=O)cc(OC)c1` [Example 122, Acetic acid (S)-4-[3-(4-chloro-phenoxy)-azetidin-1-yl]-2-[3-(3,5-dimethoxy-phenyl)-ureido]-butyl ester], the IC50 at human CCR-3 turned out to be 22 nM.

As to `CCc1nnc(NC(=O)NCCCN2CC(Cc3ccc(Cl)cc3)C2)s1` [Example 190, 1-{3-[3-(4-chloro-benzyl)-azetidin-1-yl]-propyl}-3-(5-ethyl-[1,3,4]thiadiazol-2-yl)-urea], at histamine H1, the “histamine H1 antagonist activity” value is on record as “histamine H1 antagonists”. On human CCR-3, the IC50 was 11 nM.

One may read the Kd as a measure of binding affinity in units of concentration. `O=C1c2ccccc2CCC1CNCCc1ccc(O)c(I)c1` (centres unmarked) [[^125I]-HEAT] showed a Kd in assay [1] of 0.0589 ± 0.0187 nM.

For the origin of these results see US7288537B2, “Azetidine derivatives as CCR-3 receptor antagonists” (Novartis AG, priority 2002, dated 2007).
